The results in this text go back to ChEMBL document CHEMBL1201862, “PubChem BioAssay data set” (2004).

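Dose response: 5 concentrations. Exposure: 48 h. Format: 96-well plates. Endpoint: linear interpolation; highest concentration if not reached. Abbreviation: GI50, concentration required for 50% inhibition of growth.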 Active and inactive are the calls of the source. Cut-off read from the data, not from the text of the source: active = GI50 up to about 1.1 µM and inactive = higher.

Holding throughout (assay): NCI-60 cell line screen, 48 h
Test [1] has as its system 786-0.
Test [2] has as its system Hs-578T.
Test [3] concerns DU-145.
Test [4] has as its system MDA-MB-435.
Test [5] relates to HOP-18.
For test [6], the system named is XF498.
For test [7], the system named is DLD-1.
Test [8] deals with LXFL 529.
Test [9] has as its system RXF 631.

Consider `CN1c2ccccc2C(=O)NC12CCN(CCCC(=O)c1ccc(F)cc1)CC2`, for which the GI50 in test [1] is 74.3 µM (inactive); in [2], > 100 µM (inactive); in test [3] it was > 100 µM (inactive); in test [4] it was 56.8 µM (inactive).
In the case of `COc1cccc2c1C(=O)c1c(O)c3c(c(O)c1C2=O)C[C@@](O)(C(=O)CO)C[C@@H]3OC1CC(N2CCOCC2)C(O)C(C)O1` (some centres not stated), the GI50 was 0.0034 µM (active) in test [5]; 0.0025 µM (active) in test [6]; 0.0249 µM (active) in [2]; 0.0497 µM (active) in test [3]; 0.0478 µM (active) in test [4]; 0.00277 µM (active) in test [7].
`Cc1ccc2cc3cccc(C(=O)NCCN(C)C)c3nc2c1`: the values for the GI50 in [5], in test [6] and in test [7] were 2.23 µM (inactive), 0.977 µM (active) and 0.935 µM (active), respectively.
Consider `C=CCC(O[Si](C)(C)C(C)(C)C)c1cc(O[Si](C)(C)C(C)(C)C)ccc1OC` (configuration not stated), for which the GI50 was > 100 µM (inactive) in [5], > 58.5 µM (inactive) in test [6] and > 70.3 µM (inactive) in test [7].
Turning to `Cc1cc(S(=O)(=O)Nc2nc(Nc3ccccc3)n[nH]2)c(SSc2cc(Cl)c(C)cc2S(=O)(=O)Nc2nc(Nc3ccccc3)n[nH]2)cc1Cl`, the values for the GI50 in test [2], in test [3] and in test [4] were 86.1 µM (inactive), > 100 µM (inactive) and > 100 µM (inactive), respectively.
As for `NNC(=O)CCc1ccc2ccc3ccccc3c2c1`, the GI50 in test [1] is 94.4 µM (inactive); in [2] it was 57.7 µM (inactive); in test [3], > 100 µM (inactive); in test [4], > 100 µM (inactive).
`COC(=O)CCC(C)C1CCC2C3CCC4CC5CCC4(C)C3(O5)C(Br)C(Br)C12C` (configuration not stated): the GI50 in test [1], in test [2], in [3] and in test [4] was > 100 µM (inactive) throughout.
Turning to `CN(C)CCNC(=O)c1cc(Cl)cc2ccc(-c3ccccc3)nc12`, the figures for the GI50 in [5], in test [6] and in test [7] were 3.52 µM (inactive), 2.18 µM (inactive) and 3.3 µM (inactive), respectively.
As for `COc1cccc(C2C(C(=O)O)=C(CO)Oc3cc4c(cc32)OCO4)c1OC` (configuration not stated), the GI50 is > 100 µM (inactive) in [5]; > 100 µM (inactive) in test [8]; 9.25 µM (inactive) in test [6]; > 100 µM (inactive) in test [9]; > 100 µM (inactive) in test [7].
Turning to `O=C(OCc1ccccc1)C(Cc1ccccc1)N(Cc1ccccc1)Cc1ccccc1` (configuration not stated), the values for the GI50 in test [8], in [6] and in [7] were 21.9 µM (inactive), 21.8 µM (inactive) and > 100 µM (inactive), respectively.
With `C1CC2=C(C1)[Se]C(=C1Sc3nsnc3S1)[Se]2`, the GI50 is > 100 µM (inactive) in test [1], > 100 µM (inactive) in test [2], > 100 µM (inactive) in test [3] and 39 µM (inactive) in [4].
Turning to `COc1ccc(OC)c(SC(CC(=O)c2ccccc2)c2ccccc2)c1` (configuration not stated), the GI50 in test [1] was 15.6 µM (inactive); in test [2] it was 28.4 µM (inactive); in test [3], 7.85 µM (inactive); in [4] it was 13 µM (inactive).
`COc1cc(/C=C2\N=C(c3ccccc3)N(c3ccc(C(=O)c4ccccc4)cc3N3C(=O)/C(=C/c4cc(OC)c(OC)c(OC)c4)N=C3c3ccccc3)C2=O)cc(OC)c1OC`: the GI50 in [1] was 16.8 µM (inactive); in test [2] it was 17.9 µM (inactive); in test [3] it was 14.5 µM (inactive); in test [4], 2.85 µM (inactive).
Consider `COC(=O)[C@@H]1C=C[C@H](NC(C)=O)C1`, for which the GI50 in [2], in test [3] and in test [4] was > 100 µM (inactive) each time.
For the compound `C=CCc1cccc(/C=N\N/C(N)=N/O)c1O`, the GI50 in test [5] is 5.09 µM (inactive); in [6], 4.27 µM (inactive); in test [7] it was 4.84 µM (inactive).
Regarding `CC(C)(C)[Si](C)(C)OCC1OC(n2cnc3c(N)ncnc32)CC1OS(C)(=O)=O` (configuration not stated), the GI50 in [3] and in test [4] was > 100 µM (inactive) each time.
With `O=C1OC(c2ccccc2)=N/C1=C\c1ccc(Oc2ccc(Cl)c(Cl)c2)cc1`, the GI50 in test [5] is > 100 µM (inactive); in test [8], 25.6 µM (inactive); in [1], 29.9 µM (inactive); in [7] it was 48.9 µM (inactive).
Take `COC(=O)C1=C(C)N2CCOC2(C)C(C(=O)OC)C1c1ccc[nH]1` (configuration not stated): the GI50 in test [8] and in [7] was > 100 µM (inactive) each time.
On to `O=[N+]([O-])c1ccccc1S(=O)(=O)c1cccc2c1NCCC2`, for which the GI50 is > 100 µM (inactive) in [1], 51.1 µM (inactive) in test [2], 60.5 µM (inactive) in [3] and 27.7 µM (inactive) in [4].
As to `COc1nc2cccc(C(O)c3ccccc3)c2nc1-c1ccccc1` (configuration not stated), the GI50 is 2.28 µM (inactive) in test [2], 5.93 µM (inactive) in test [3] and 1.78 µM (inactive) in [4].
In the case of `CC(=O)OC1CC2(O)C(CCC3(C)C(c4ccc(=O)oc4)CCC32O)C2(C)C1=CC(O)C1OC12` (configuration not stated), the GI50 in test [5] was 0.048 µM (active); in test [6] it was 0.0693 µM (active); in test [7] it was 0.0506 µM (active).
As for `O=P1(c2ccccc2)Nc2ccccc2SSc2ccccc2N1`, the values for the GI50 in test [5], in test [6] and in [7] were 19.2 µM (inactive), 17.8 µM (inactive) and 17 µM (inactive), respectively.
`CC(C)NC(=O)CN1CCN(C2=C(Cl)C(=O)c3c(O)ccc(O)c3C2=O)CC1`: the GI50 in [1] was 2.56 µM (inactive); in [2] it was 2.39 µM (inactive); in test [3] it was 2.71 µM (inactive); in [4], 1.62 µM (inactive).
`COc1cc(CCCOC2OC(COC3OCC(O)C(O)C3O)C(O)C(O)C2O)cc2cc(-c3ccc4c(c3)OCO4)oc12` (configuration not stated): the GI50 in test [6] and in [7] was > 175 µM (inactive) throughout.
On to `C=C1C(=O)O[C@H]2[C@H]1[C@@H](OC(=O)C=C(C)C)CC1=C[C@@H](C[C@@]3(C)O[C@@H]23)OC1=O`, for which the GI50 in test [5] is 3.05 µM (inactive); in test [6], 2.05 µM (inactive); in test [7], 1.6 µM (inactive).
For the compound `O=C(O)/C(Cc1ccnc2ccccc12)=N\O`, the GI50 in test [1], in test [2], in [3] and in [4] was > 100 µM (inactive) throughout.
As for `NC(CCCCCCCCCCP(=O)(O)O)C(=O)O` (configuration not stated), the GI50 in [2], in [3] and in test [4] was > 100 µM (inactive) throughout.
With `Cc1ccc2oc3c(ccc(=O)n3C)c(=O)c2c1`, the GI50 in test [2], in test [3] and in test [4] was > 100 µM (inactive) throughout.
Regarding `CC1CCC2N(C1)CC1C3(O)CC45OC6(O)C(O)CCC4(C)C6CCC5C3(O)CC(O)C1(O)C2(C)O` (configuration not stated), the GI50 in [1], in [2], in test [3] and in test [4] was > 100 µM (inactive) each time.
For `Cc1ccc(S(=O)(=O)N(CC(=O)O)c2ccccc2)cc1`, the GI50 in test [5], in [8], in [1] and in test [7] was > 100 µM (inactive) throughout.
On to `Cc1cc(C)cc(Sc2c([N+](=O)[O-])ncn2C)c1`, for which the GI50 in [5] is 1.28 µM (inactive); in test [8] it was 7.83 µM (inactive); in test [6], 16.6 µM (inactive); in test [1], 24 µM (inactive); in [9] it was 16 µM (inactive); in test [7], 11.9 µM (inactive).
Consider `COC(=S)OC1CC(n2cnc3c(N)ncnc32)OC1CO[Si](C)(C)C(C)(C)C` (configuration not stated), for which the GI50 in [3] was 16.8 µM (inactive); in test [4] it was 17 µM (inactive).
